Source: patent publication US20230416248A1, “COMPOUNDS AND USES THEREOF” (Foghorn Therapeutics Inc., priority 2020, published 2023)
Like-named read-outs stand apart in the source and are kept apart here.

Tests used:
BRM = target: T1, BRM (Homo sapiens, UniProt P51531); assay: ATPase catalytic activity of BRM, ADP-Glo in vitro biochemical assay; details: for IC50: 30 nM BRM, 400 μM ATP; for Ratio* (BRG1 IC50 (μM) divided by BRM IC50 (μM)): selectivity ratio BRG1 IC50 / BRM IC50
T1 construct: made in house; host or cells: High Five insect cells
T1 sequence (P51531 whole entry): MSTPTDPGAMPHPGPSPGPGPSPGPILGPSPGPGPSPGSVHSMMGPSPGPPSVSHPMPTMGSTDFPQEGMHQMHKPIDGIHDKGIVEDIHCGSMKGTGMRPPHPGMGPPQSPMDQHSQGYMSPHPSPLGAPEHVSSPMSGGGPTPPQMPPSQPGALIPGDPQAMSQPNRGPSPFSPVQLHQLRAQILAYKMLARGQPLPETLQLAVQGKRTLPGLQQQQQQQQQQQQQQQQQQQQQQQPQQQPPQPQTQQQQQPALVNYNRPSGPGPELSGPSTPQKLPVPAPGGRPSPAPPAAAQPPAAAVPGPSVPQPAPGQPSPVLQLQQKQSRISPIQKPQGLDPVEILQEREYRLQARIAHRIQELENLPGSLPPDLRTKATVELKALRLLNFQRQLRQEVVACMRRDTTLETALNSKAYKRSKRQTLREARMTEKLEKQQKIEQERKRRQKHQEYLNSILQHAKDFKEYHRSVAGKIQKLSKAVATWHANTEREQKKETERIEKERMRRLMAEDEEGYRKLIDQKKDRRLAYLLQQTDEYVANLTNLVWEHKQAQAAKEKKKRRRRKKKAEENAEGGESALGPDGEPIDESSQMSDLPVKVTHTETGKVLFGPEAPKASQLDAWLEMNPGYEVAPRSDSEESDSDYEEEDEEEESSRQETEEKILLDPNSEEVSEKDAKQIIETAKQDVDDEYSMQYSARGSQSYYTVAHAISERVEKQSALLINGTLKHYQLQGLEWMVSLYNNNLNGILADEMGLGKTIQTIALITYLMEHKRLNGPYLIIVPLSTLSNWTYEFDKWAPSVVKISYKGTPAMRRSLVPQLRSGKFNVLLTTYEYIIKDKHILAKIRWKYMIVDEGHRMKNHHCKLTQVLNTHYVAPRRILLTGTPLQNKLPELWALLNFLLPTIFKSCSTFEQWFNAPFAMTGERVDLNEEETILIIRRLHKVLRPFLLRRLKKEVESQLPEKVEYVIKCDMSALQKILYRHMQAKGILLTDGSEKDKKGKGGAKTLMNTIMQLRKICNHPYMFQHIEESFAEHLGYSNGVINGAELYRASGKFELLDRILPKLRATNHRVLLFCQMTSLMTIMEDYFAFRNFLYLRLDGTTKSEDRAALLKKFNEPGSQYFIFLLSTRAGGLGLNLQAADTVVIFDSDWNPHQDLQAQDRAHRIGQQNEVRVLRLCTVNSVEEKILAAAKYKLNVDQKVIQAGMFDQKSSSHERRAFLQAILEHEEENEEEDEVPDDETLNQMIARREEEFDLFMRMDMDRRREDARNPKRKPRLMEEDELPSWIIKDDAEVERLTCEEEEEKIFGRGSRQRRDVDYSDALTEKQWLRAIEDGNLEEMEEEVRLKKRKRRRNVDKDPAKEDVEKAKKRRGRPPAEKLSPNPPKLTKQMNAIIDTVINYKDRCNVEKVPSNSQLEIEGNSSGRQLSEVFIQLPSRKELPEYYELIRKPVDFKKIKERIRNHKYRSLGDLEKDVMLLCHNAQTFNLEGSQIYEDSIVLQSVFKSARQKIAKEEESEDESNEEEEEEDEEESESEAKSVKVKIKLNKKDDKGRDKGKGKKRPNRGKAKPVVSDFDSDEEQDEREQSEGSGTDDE
Summary of the method: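 ADP-Glo luminescence, after depletion of leftover ATP and conversion of ADP, reported the activity. The 1 h room-temperature reaction held 400 μM ATP, 20 nM salmon sperm DNA and 30 nM BRM in 20 mM Tris pH 8, 20 mM MgCl2, 50 mM NaCl, 0.1% Tween-20, 1 mM DTT.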

BRG-1 = target: T2, BRG-1 (Homo sapiens, UniProt P51532); assay: ATPase catalytic activity of BRG-1, ADP-Glo in vitro biochemical assay; details: 30 nM BRG-1, 400 μM ATP, read-out: BRG1 IC50
T2 construct: made in house; host or cells: High Five insect cells
T2 sequence (P51532 whole entry): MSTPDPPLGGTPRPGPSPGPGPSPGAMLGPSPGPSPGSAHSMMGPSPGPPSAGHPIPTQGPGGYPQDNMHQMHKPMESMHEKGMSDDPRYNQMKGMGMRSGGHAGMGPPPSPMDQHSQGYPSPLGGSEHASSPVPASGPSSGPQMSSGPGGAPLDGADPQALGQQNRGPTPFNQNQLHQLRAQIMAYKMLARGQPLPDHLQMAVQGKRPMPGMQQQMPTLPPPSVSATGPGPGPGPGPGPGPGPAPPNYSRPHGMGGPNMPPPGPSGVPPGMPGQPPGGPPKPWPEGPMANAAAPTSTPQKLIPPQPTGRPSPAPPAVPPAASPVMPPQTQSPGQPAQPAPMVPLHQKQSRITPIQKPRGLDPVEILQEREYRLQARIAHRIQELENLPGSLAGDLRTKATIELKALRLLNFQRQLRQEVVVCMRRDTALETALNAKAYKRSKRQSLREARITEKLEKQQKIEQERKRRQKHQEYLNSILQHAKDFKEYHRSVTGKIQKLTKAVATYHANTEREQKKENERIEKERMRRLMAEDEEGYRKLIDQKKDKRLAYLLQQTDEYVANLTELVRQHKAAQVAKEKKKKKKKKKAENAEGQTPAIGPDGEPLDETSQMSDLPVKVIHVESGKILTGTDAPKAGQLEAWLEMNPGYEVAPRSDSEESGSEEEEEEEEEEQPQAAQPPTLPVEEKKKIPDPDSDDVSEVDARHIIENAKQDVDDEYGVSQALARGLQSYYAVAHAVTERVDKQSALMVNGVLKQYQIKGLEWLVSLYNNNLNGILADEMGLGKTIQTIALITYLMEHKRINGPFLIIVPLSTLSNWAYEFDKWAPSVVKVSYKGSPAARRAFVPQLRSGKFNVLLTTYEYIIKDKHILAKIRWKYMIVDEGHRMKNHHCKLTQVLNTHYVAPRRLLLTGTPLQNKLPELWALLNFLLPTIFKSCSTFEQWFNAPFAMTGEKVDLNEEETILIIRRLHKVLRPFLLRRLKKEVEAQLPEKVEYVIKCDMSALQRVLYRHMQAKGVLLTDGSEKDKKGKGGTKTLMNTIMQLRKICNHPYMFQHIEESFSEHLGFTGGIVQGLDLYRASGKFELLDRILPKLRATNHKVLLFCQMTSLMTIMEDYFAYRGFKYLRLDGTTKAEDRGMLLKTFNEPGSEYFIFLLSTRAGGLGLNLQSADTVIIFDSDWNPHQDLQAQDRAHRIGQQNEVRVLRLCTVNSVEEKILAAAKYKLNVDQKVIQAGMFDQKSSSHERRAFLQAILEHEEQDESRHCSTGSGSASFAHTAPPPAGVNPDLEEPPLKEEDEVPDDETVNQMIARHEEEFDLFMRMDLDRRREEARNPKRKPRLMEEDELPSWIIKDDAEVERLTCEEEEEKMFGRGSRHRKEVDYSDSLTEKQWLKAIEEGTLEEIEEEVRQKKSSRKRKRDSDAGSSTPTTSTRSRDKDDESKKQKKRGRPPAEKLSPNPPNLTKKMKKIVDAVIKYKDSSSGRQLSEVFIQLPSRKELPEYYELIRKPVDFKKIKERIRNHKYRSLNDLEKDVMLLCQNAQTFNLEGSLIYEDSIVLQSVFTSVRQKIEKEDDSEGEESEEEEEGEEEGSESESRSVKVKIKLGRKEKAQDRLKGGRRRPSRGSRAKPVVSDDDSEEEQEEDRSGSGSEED
Summary of the method: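 ADP produced by BRG-1 was quantified by luciferase luminescence. A 60 min room-temperature ADP-to-ATP conversion followed a 40 min ATP-depletion step.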

[1] = ATPase catalytic activity, ADP-Glo

Row | SMILES | IC50 (BRM; [1]) [nM] | Ratio* (BRM; ratio of BRG1 IC50 to BRM IC50) | IC50 (BRG-1; [1]) [nM] | IC50 (BRM; ADP-Glo ATPase assay) [nM] | Ratio* (BRG1 IC50 (μM) divided by BRM IC50 (μM)) (BRM) | IC50 (BRG-1; ADP-Glo ATPase assay) [nM] | Ratio* (BRM; ratio BRG1 IC50 / BRM IC50)
1 | O=C(NCc1cc2nc(N3CCCc4c(OC(F)F)ccnc43)ccc2cn1)c1ccc2c(c1)S(=O)(=O)CCOC2 [Compound 620] | 16.8 | 9.37 | 158 |  |  |  | 
2 | C[C@@H]1CN(c2cccc(-c3ccc4cnc(CNC(=O)c5ccc(CC(F)F)c(S(C)(=O)=O)c5)cc4n3)n2)C[C@H](C)O1 [Compound 138] |  |  |  | 10.8 | 4.70 | 50.7 | 
3 | CCOCc1ccc2c(n1)N(c1ccc3cnc(CNC(=O)c4ccc5c(c4)S(=O)(=O)CCOC5)cc3n1)CCC2 [Compound 564] | 33.6 | 26.25 | 881 |  |  |  | 
4 | Cc1ccc2c(c1)CCCN2c1ccc2cnc(CNC(=O)c3ccc4c(c3)S(=O)(=O)CCOC4)cc2n1 [Compound 350] | 8.1 | 12.99 | 105 |  |  |  | 
5 | CN(C)c1cnc2c(c1)OCCN2c1ccc2cnc(CNC(=O)c3ccc4c(c3)S(=O)(=O)CCOC4)cc2c1 [Compound 790] |  |  |  | 12.2 |  | 61.4 | 5.03
6 | COCc1cc(C)c2c(n1)N(c1ccc3cnc(CNC(=O)c4ccc5c(c4)S(=O)(=O)CCOC5)cc3n1)CCC2 [Compound 816] |  |  |  | 42.3 |  | 764 | 18.04
7 | O=C(NCc1cc2nc(-c3cncc(C4CC4)n3)ccc2cn1)c1cc(Cl)c2c(c1)S(=O)(=O)CCOC2 [Compound 187] |  |  |  | 109 | 24.40 | 2670 | 
8 | COCCN(CC(C)(F)F)c1cccc(-c2ccc3cnc(CNC(=O)c4ccc5c(c4)S(=O)(=O)CCOC5)cc3n2)n1 [Compound 373] | 12.9 | 10.75 | 138 |  |  |  | 
9 | CN(C)c1cccc(-c2ccc3cnc(CNC(=O)c4cc(F)c5c(c4)S(=O)(=O)CCOC5)cc3n2)n1 [Compound 284] |  |  |  | 12.1 | 14.69 | 178 | 
10 | CN(C)c1cnc2c(c1)CCCN2c1ccc2cnc(CNC(=O)c3ccc4c(c3)S(=O)(=O)CCOC4)cc2n1 [Compound 441] | 11.7 | 8.52 | 99.5 |  |  |  | 
11 | Cc1cc(-c2ccc3cnc(CNC(=O)c4ccc5c(c4)S(=O)(=O)CCOC5)cc3n2)nc(N2C[C@@H](C)O[C@@H](C)C2)c1 [Compound 212] |  |  |  | 14.3 | 8.51 | 122 | 
12 | O=C(NCc1cc2nc(-c3cccc(N4CC(C5COC5)C4)n3)ccc2cn1)c1ccc2c(c1)S(=O)(=O)CCOC2 [Compound 604] | 5.7 | 10.00 | 56.9 |  |  |  | 
13 | C[C@@H]1CN(c2cccc(-c3ccc4cnc(CNC(=O)c5cc(F)c6c(c5)S(=O)(=O)CCOC6)cc4n3)n2)C[C@H](C)O1 [Compound 240] |  |  |  | 6.5 | 3.66 | 23.8 | 
14 | [2H]C([2H])([2H])N(c1cccc(-c2ccc3cnc(CNC(=O)c4ccc5c(c4)S(=O)(=O)CCOC5)cc3n2)n1)C([2H])([2H])[2H] [Compound 291] |  |  |  | 10.3 | 9.47 | 97.2 | 
15 | C[C@@H]1CN(c2cccc(-c3ccc4nnc(CNC(=O)c5ccc6c(c5)S(=O)(=O)CCOC6)cc4c3)n2)C[C@H](C)O1 [Compound 160] |  |  |  | 3 | 4.54 | 13.6 | 
16 | O=C(NCc1cc2nc(N3CCCc4ccc(C5CCC5)nc43)ccc2cn1)c1ccc2c(c1)S(=O)(=O)CCOC2 [Compound 730] |  |  |  | 16.4 |  | 814 | 49.65
17 | C[C@@H]1CN(c2cccc(-c3ccc4cnc(CNC(=O)c5ccc6c(c5)S(=O)(=O)CCOC6)cc4n3)n2)C[C@H](C)O1 [Compound 282] |  |  |  | 4.2 | 4.64 | 19.3 | 
18 | O=C(NCc1cc2nc(-c3cccc(N4CC5CC(C4)O5)n3)ccc2cn1)c1ccc2c(c1)S(=O)(=O)CCOC2 [Compound 276] |  |  |  | 81.8 | 7.14 | 584 | 
19 | COc1ccc2c(n1)N(c1ccc3cnc(CNC(=O)c4ccc5c(c4)S(=O)(=O)CCOC5)cc3n1)CCC2 [Compound 568] | 106 | 9.95 | 1060 |  |  |  | 
20 | COC[C@H]1CCc2ccc(-c3ccc4cnc(CNC(=O)c5ccc6c(c5)S(=O)(=O)CCOC6)cc4n3)nc2N1C [Compound 477] | 45.2 | 6.50 | 293 |  |  |  | 
21 | C[C@@H]1CN(c2cccc(-c3ccc4cnc(CNC(=O)c5ccc6c(c5)S(=O)(=O)CCC(F)(F)C6)cc4n3)n2)C[C@H](C)O1 [Compound 587] | 11.2 | 5.69 | 63.9 |  |  |  | 
22 | CC1(c2cccc(-c3ccc4cnc(CNC(=O)c5ccc6c(c5)S(=O)(=O)CCOC6)cc4n3)n2)CC1 [Compound 210] |  |  |  | 17.6 | 9.92 | 174 | 

Row | SMILES | IC50 (BRM; [1]) [nM] | Ratio* (BRM; ratio of BRG1 IC50 to BRM IC50) | IC50 (BRG-1; [1]) [nM] | IC50 (BRM; ADP-Glo ATPase assay) [nM] | Ratio* (BRG1 IC50 (μM) divided by BRM IC50 (μM)) (BRM) | IC50 (BRG-1; ADP-Glo ATPase assay) [nM] | Ratio* (BRM; ratio BRG1 IC50 / BRM IC50)
23 | CO[C@H]1CN(c2cccc(-c3ccc4cnc(CNC(=O)c5ccc6c(c5)S(=O)(=O)CCOC6)cc4n3)n2)C[C@H]1F [Compound 332] | 16.6 | 13.49 | 224 |  |  |  | 
24 | CS(=O)(=O)c1cc(C(=O)NCc2cc3nc(-c4cccc(N5CC[C@@H]6COCC6C5)n4)ccc3cn2)ccc1C(F)F (stereo partly drawn) [Compound 86] |  |  |  | 22.5 | 14.43 | 324 | 
25 | O=C(NCc1cc2nc(N3CCCc4c(C(F)F)ccnc43)ccc2cn1)c1ccc2c(c1)S(=O)(=O)CCOC2 [Compound 521] | 59.7 | 7.10 | 424 |  |  |  | 
26 | CO[C@H]1CCN(c2cccc(-c3ccc4cnc(CNC(=O)c5ccc6c(c5)S(=O)(=O)CCOC6)cc4n3)n2)C[C@@H]1C [Compound 352] | 60.2 | 8.02 | 483 |  |  |  | 
27 | C[C@@H]1CN(c2cccc(-c3ccc4cnc(CNC(=O)c5ccc6c(c5)S(=O)(=O)CCOC6)cc4n3)c2)C[C@H](C)O1 [Compound 112] |  |  |  | 12.9 | 13.71 | 176 | 
28 | Cn1nccc1-c1cccc(-c2ccc3cnc(CNC(=O)c4ccc5c(c4)S(=O)(=O)CCOC5)cc3n2)c1 [Compound 235] |  |  |  | 154 | 7.32 | 1130 | 
29 | O=C(NCc1cc2nc(-c3cccc([C@@H]4CC4(F)F)c3)ccc2cn1)c1ccc2c(c1)S(=O)(=O)CCOC2 [Compound 251] |  |  |  | 176 | 9.69 | 1700 | 
30 | Cc1ccc2c(n1)N(c1ccc3cnc(CNC(=O)c4ccc5c(c4)S(=O)(=O)CCOC5)cc3n1)CCN2C [Compound 593] | 243 | 9.02 | 2190 |  |  |  | 
31 | C[C@H]1COCc2ccc(C(=O)NCc3cc4nc(N5CCOc6cc(Cl)cnc65)ccc4cn3)cc2S1(=O)=O [Compound 646] | 12.1 | 20.44 | 247 |  |  |  | 
32 | Cn1ccc2c(-c3ccc4cnc(CNC(=O)c5ccc6c(c5)S(=O)(=O)CCOC6)cc4n3)cccc21 [Compound 245] |  |  |  | 18.7 | 9.42 | 176 | 
33 | C[C@H](C1COC1)N(C)c1cccc(-c2ccc3cnc(CNC(=O)c4ccc5c(c4)S(=O)(=O)CCOC5)cc3n2)n1 [Compound 470] | 74.8 | 12.76 | 954 |  |  |  | 
34 | Cc1c(C2CC2)cnc2c1OCCN2c1ccc2cnc(CNC(=O)c3ccc4c(c3)S(=O)(=O)CCOC4)cc2n1 [Compound 784] |  |  |  | 24.6 |  | 212 | 8.62
35 | O=C(NCc1cc2nc(N3CCCc4ccc(C(F)CF)nc43)ccc2cn1)c1ccc2c(c1)S(=O)(=O)CCOC2 (stereo not drawn) [Compound 823] |  |  |  | 61.3 |  | 1090 | 17.84
36 | O=C(NCc1cc2nc(-c3ccc(C(F)F)cc3OC3CC3)ccc2cn1)c1ccc2c(c1)S(=O)(=O)CCOC2 [Compound 357] | 21.4 | 13.72 | 293 |  |  |  | 
37 | C[C@@H]1CN(c2cccc(-c3ccc4cnc(CNC(=O)c5ccc6c(c5)S(=O)(=O)[C@H](C)C6)cc4n3)n2)C[C@H](C)O1 [Compound 502] | 8 | 14.99 | 120 |  |  |  | 
38 | O=C(NCc1cc2nc(-c3cccc(C4(F)COC4)n3)ccc2cn1)c1ccc2c(c1)S(=O)(=O)CCOC2 [Compound 142] |  |  |  | 230 | 11.55 | 2660 | 
39 | Cc1ccc2c(c1)OCCN2c1ccc2cnc(CNC(=O)c3cnc4c(c3)S(=O)(=O)[C@@H](C)COC4)cc2n1 [Compound 749] |  |  |  | 12.6 |  | 209 | 16.64
40 | O=C(NCc1cc2nc(N3CCCc4ccc(C5CCOC5)nc43)ccc2cn1)c1ccc2c(c1)S(=O)(=O)CCOC2 (stereo not drawn) [Compound 630] | 48 | 24.14 | 1160 |  |  |  | 
41 | COC[C@H]1C[C@@H](N(C)c2cccc(-c3ccc4cnc(CNC(=O)c5ccc6c(c5)S(=O)(=O)CCOC6)cc4n3)n2)C1 [Compound 436] | 15 | 15.10 | 226 |  |  |  | 
42 | COCCN1CCOc2c(-c3ccc4cnc(CNC(=O)c5ccc(C(F)F)c(S(C)(=O)=O)c5)cc4n3)cccc21 [Compound 89] |  |  |  | 30.8 | 21.02 | 648 | 
43 | CO[C@@H](C)COc1ccc2c(c1)N(c1ccc3cnc(CNC(=O)c4ccc5c(c4)S(=O)(=O)CCOC5)cc3n1)CCC2 [Compound 706] |  |  |  | 5 |  | 46.9 | 9.39
